PubChem BioAssay (NCI)
Where “and” joins values, the source holds several entries; their conditions need not be identical. Identical values can stand only once.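 All cell lines were grown in 96-well plates and treated with compound for 48 hours. GI50 = concentration required for 50% inhibition of growth. TGI: total growth inhibition.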

How the values were obtained:
Assay in all cases: NCI tumour cell line growth inhibition, 48 h
K-562 leukemia = tested on: K-562 leukemia
NCI-H226 lung = tested on: NCI-H226 lung
HT29 colon = tested on: HT29 colon
SF-539 CNS = tested on: SF-539 CNS
786-0 renal = tested on: 786-0 renal
SF-268 CNS = tested on: SF-268 CNS
A549 NSCLC = tested on: A549 NSCLC
BT-549 breast = tested on: BT-549 breast

Structure (SMILES) | GI50 (K-562 leukemia) [µM] | TGI (K-562 leukemia) [µM] | GI50 (NCI-H226 lung) [µM] | TGI (NCI-H226 lung) [µM] | GI50 (HT29 colon) | TGI (HT29 colon) [µM] | GI50 (SF-539 CNS) [µM] | TGI (SF-539 CNS) [µM] | GI50 (786-0 renal) | TGI (786-0 renal) [µM] | GI50 (SF-268 CNS) [µM] | TGI (SF-268 CNS) [µM] | GI50 (A549 NSCLC) | TGI (A549 NSCLC) [µM] | GI50 (BT-549 breast) [µM] | TGI (BT-549 breast) [µM]
Oc1c(CN2CCOCC2)cc(COCc2ccccc2)c2cccnc12 | 2.74 | > 100 | 4.65 | 36.8 | 19.8 µM | 65.4 | 2.24 | 11.5 | 2.67 µM | 19.2 | 1.95 | > 100 | 4.22 µM | 64 | 3.19 | 81.8
N#Cc1c2c(c(-c3cccs3)n(C3OC(CO)C(O)C(O)C3O)c1=S)CCc1ccccc1-2 (stereo not drawn) | – | > 100 | – | > 100 | 6.27 µM and > 20.9 µM | > 100 | – | > 100 | 12.3 µM and 25.2 µM | > 100 | > 100 | > 100 | 20.9 µM and > 85.1 µM | > 100 | – | > 100
CCCn1c(N)c(C(=O)CNc2ccc(I)cc2)c(=O)[nH]c1=O | – | > 100 | 12.9 | > 100 | 1.23 µM | > 100 | 0.84 | > 45.6 | 4.21 µM | > 100 | 4.55 | > 100 | 2.1 µM | > 100 | > 64.4 | > 100
Cc1cc(O)cc2c1c(=O)c1ccccc1n2C | – | – | – | > 100 | – | > 100 | – | > 100 | – | > 100 | – | 84.4 | – | > 100 | – | > 100
Nc1c(C(=O)Nc2cccc(Br)c2)sc2nc3c(cc12)C(O)CCC3 (stereo not drawn) | 0.12 | > 38.4 | 0.936 | 54.4 | 0.319 µM | 11 | 0.337 | 2.14 | 0.645 µM | 36.1 | 0.682 | > 57.6 | 0.494 µM | 22 | 0.972 | > 75.3
COc1cc([C@@H]2c3cc4c(cc3C[C@H]3COC(=O)[C@@H]32)OCO4)cc2c1OCO2 | – | > 40 | – | < 0.01 | – | < 0.01 | – | < 0.01 | – | > 59.8 | – | > 100 | – | > 100 | – | –
O=C(c1ccccc1)C1C(C(=O)c2ccccc2)C(c2ccccc2)N(c2ccccc2)C1c1ccccc1 (stereo not drawn) | – | > 100 | – | > 100 | – | – | – | > 100 | – | > 100 | – | > 100 | – | > 100 | – | > 100
O=C(Nc1cc(-c2cccnc2)nc(NCCCN2CCOCC2)n1)c1cc(Br)cc(C(F)(F)F)c1 | 2.8 | 21.7 | 9.3 | 22.7 | 2.12 µM | 4.95 | 1.67 | 3.47 | 1.55 µM | 3.17 | 2.63 | 10.4 | 10.1 µM | 22.2 | 3.27 | 15
C#CCN(Cc1nc2cc(C(F)(F)F)ccc2nc1-c1ccccc1)c1ccc(F)c(F)c1 | 39.4 | > 100 | 92.5 | > 100 | 41.1 µM | > 100 | 29.2 | > 100 | > 100 µM | > 100 | 22.1 | > 100 | 19.8 µM | 82.1 | 53.1 | > 100
c1ccc2nc(OCCN3CC3)ccc2c1 | 3.06 | 24 | 16.6 | 38.6 | – | – | 21.5 | 47.1 | 14.3 µM | 37.3 | 16 | 35.5 | 14.4 µM | 30.7 | 20.7 | 37.7
Cc1cc(O)c(C(c2ccncc2)c2c(O)cc(C)[nH]c2=O)c(=O)[nH]1 | – | > 100 | – | – | – | > 100 | – | – | – | > 100 | – | > 100 | – | > 100 | – | > 100
O=[N+]([O-])c1cc(F)c2cccnc2c1O | – | – | 30.5 | > 100 | 4.55 µM | 20.7 | 13.6 | > 100 | 10.2 µM | 94.6 | 6.21 | > 100 | 6.94 µM | > 100 | 19 | > 100
ClCC#CCSc1ncnc2c1ncn2CC#CCCl | 3.15 | 40.4 | – | – | 1.65 µM | 3.85 | 2.1 | 4.21 | 1.66 µM | 3.41 | 1.33 | 3.09 | 1.76 µM | 4.35 | 1.61 | 3.02
CCOC(=O)/C(C#N)=C/Nc1ccc(-c2nc3ccccc3[nH]2)cc1 | 25.1 | 98.6 | > 100 | > 100 | – | – | 21.5 | 40.9 | 27.2 µM | 64.7 | 19.2 | 47.4 | 52.7 µM | > 100 | 34.1 | 85.5
O=C(Nc1cccc(C(F)(F)F)c1)c1cc(Br)cc(Br)c1O | – | 7.18 | – | 9.42 | – | > 10 | – | 9.15 | – | > 10 | – | > 10 | – | 9.56 | – | –
C#Cc1cc2c(N)c(C(=O)c3cc(OC)c(OC)c(OC)c3)[nH]c2cc1OC | 0.462 | > 100 | 5.74 | > 100 | 0.374 µM | 76.2 | 0.28 | 1.6 | 0.542 µM | > 100 | 14.1 | > 100 | 0.729 µM | > 100 | – | –
COC(=O)C(Cc1nc2ccccc2[nH]c1=O)C(=O)C(=O)Nc1cc(C(F)(F)F)ccc1Cl (stereo not drawn) | – | > 100 | – | 35.1 | – | 28.6 | – | – | – | 25.2 | – | 36.4 | – | > 100 | – | 44.5
CCCCOc1ccc(/C=N/Nc2cc(C)nc3ccc(Cl)cc23)cc1 | – | – | 1.63 | 3.41 | 1.24 µM | 2.61 | 1.84 | 3.28 | 2 µM | 3.76 | – | – | 1.86 µM | 3.44 | 1.76 | 3.43
COc1ccc(/C=N/N=C(\[O-])c2ccncc2)cc1F.COc1ccc(/C=N\N=C(/[O-])c2ccncc2)cc1F.[Cu+2] | 24.6 | > 100 | – | – | 24.1 µM | 69 | 17.8 | 37.1 | 20.2 µM | 44.3 | 25.9 | 86.3 | 27.3 µM | > 100 | 20.5 | 37.1
